Read-outs that look alike come from different tables or passages of the source.
What was measured:
recombinant RSV complex = recombinant RSV complex (Human respiratory syncytial virus A, UniProt P28887); assay: RSV Polymerase Inhibition Assay; format: biochemical
Method in brief: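 Inhibition measured as reduced incorporation of radiolabel into RNA products, detected by scintillation counting. Reactions: recombinant RSV complex (10 nM), RNA oligonucleotides, Tris-HCl pH 7.5, 6 mM MgCl2, inhibitor titration, 2 h at 30 °C, EDTA stop.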

[1] = test system: Respiratory Syncytial Virus (RSV) long strain; assay: microbe, parasite or virus in culture; format: cell-based; details: human respiratory syncytial virus, Tables A and B list compounds by EC50 band
Method in brief: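 CPE-reduction format: viability measured colorimetrically with CCK-8 (450 nm, 630 nm reference) after 3-4 h, following 5-day infection at 37 °C, 5% CO2. Cells were HEp-2; inoculum 100 TCID50/well; duplicate 9-point 1/3 series starting at 100 μM or 1 μM.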

[2] = Cytotoxicity Determination (CCK-8, without addition of virus); format: cell-based; details: human, 50% cytotoxicity concentration (CC50)
Method in brief: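 Cytotoxicity was measured by CCK-8 after 3-4 hours at 37 °C, following 5 days of uninfected exposure at 37 °C and 5% CO2. Compounds ran as duplicate 7-point 1/2 dilutions starting at 100 μM, with 1% final DMSO. HEp-2 cells had been plated at 1,500/well the day before.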

RSV replicon = assay: microbe, parasite or virus in culture; format: cell-based; details: human respiratory syncytial virus, read-out: EC50, the concentration of the drug required for reducing RSV replicon RNA by 50%
[3] = HEp-2, 120 h, read-out: 50% effective concentration (EC50), HEp-2 cells infected with RSV long strain, 5 days, CCK-8 readout
[4] = 120 h, read-out: 50% effective concentration (EC50), HEp-2 cells infected with RSV long strain, 5 days, CCK-8 readout

Chain of recombinant RSV complex (P28887 whole entry): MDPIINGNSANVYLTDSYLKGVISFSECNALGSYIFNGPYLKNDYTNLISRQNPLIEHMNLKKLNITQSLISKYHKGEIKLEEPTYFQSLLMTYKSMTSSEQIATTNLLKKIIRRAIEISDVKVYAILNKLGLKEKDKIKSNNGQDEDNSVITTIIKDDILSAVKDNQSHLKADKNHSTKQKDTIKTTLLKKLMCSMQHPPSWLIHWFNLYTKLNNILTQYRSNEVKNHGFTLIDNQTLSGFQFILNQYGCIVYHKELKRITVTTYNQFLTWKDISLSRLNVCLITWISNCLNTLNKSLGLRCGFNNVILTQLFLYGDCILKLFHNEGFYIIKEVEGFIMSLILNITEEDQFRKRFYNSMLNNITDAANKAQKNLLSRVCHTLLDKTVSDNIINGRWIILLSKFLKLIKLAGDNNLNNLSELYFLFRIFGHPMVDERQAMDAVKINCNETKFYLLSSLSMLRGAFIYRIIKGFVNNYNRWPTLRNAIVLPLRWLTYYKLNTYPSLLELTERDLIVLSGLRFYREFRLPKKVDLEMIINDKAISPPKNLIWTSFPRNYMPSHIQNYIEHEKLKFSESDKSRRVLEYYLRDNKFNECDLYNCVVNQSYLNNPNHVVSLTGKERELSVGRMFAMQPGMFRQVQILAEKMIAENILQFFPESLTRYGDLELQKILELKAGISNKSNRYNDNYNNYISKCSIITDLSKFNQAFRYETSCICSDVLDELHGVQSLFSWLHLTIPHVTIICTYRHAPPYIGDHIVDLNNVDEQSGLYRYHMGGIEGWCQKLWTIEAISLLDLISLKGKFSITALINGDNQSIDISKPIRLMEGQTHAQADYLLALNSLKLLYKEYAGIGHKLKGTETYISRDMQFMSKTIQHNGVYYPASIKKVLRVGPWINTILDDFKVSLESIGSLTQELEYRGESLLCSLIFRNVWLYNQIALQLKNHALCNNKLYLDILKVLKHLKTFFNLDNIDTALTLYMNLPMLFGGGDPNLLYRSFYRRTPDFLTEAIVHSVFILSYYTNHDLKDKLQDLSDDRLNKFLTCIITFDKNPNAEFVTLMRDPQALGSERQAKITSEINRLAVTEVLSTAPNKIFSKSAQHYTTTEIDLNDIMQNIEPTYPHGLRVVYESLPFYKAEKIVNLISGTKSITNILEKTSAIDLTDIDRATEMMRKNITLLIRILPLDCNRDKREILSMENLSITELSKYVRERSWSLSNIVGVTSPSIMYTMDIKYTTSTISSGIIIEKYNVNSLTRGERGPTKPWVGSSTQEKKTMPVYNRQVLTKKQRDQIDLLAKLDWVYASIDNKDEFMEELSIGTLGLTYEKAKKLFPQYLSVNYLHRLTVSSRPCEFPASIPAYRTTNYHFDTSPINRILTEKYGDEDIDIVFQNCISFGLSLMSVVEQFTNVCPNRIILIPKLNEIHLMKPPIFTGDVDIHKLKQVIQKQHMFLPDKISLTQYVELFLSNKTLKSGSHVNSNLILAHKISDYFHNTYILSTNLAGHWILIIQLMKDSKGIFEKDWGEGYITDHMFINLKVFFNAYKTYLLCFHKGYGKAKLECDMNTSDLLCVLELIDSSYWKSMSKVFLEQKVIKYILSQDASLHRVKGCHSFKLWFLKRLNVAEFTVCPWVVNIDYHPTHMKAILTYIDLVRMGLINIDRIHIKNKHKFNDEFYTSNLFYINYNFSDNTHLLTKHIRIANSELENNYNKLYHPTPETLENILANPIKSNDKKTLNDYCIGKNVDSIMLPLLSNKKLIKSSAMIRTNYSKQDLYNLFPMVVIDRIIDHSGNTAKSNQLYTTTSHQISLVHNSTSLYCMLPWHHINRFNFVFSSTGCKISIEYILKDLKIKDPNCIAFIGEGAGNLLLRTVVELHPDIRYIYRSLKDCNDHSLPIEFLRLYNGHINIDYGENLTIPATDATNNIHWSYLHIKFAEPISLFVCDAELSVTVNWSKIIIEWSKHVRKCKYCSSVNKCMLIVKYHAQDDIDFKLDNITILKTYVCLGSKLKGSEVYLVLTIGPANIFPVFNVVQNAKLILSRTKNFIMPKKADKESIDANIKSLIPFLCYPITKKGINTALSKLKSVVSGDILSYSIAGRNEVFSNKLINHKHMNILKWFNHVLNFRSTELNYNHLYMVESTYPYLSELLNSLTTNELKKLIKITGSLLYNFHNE
Chain of recombinant RSV complex (P03421 whole entry, further chain): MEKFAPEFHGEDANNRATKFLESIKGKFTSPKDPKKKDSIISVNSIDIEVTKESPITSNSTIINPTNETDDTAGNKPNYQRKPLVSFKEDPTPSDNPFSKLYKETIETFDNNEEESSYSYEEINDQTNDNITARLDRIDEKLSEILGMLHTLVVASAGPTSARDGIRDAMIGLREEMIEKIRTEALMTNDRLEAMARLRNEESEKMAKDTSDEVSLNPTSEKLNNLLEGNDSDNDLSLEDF

| SMILES | IC50 (recombinant RSV complex) | EC50 [1, 3] | CC50 at 5 days [2] | EC50 (RSV replicon) | EC50 [1, 4] |
| --- | --- | --- | --- | --- | --- |
| COc1cc(C(=O)NCC(O)(c2cc3c(c(-c4ccc(F)c(Cl)c4)n2)OCC3(C)C)C2CC2)cc2cccnc12 (centres unmarked) [Compound 224] | < 1000 nM | < 1000 nM | 10 to 100 µM | < 1000 nM |  |
| COc1cc(C(=O)NCC(O)(c2ccc(OC)c(-c3ccc(F)c(Cl)c3)n2)C(F)(F)F)ccc1OC1CCC1 (centres unmarked) [Compound 245] | < 1000 nM | < 1000 nM | > 100 µM | < 1000 nM |  |
| COc1cc(C(=O)NCC(F)(c2ccc(OC)c(-c3ccc(F)c(Cl)c3)n2)C(F)(F)F)ccc1OC1CCNC1=O (centres unmarked) [Compound 344] | < 1000 nM | < 1000 nM | 10 to 100 µM | < 1000 nM |  |
| COc1ccc(C(O)(CO)CNC(=O)c2cc(OC)c3ncccc3c2)nc1-c1ccc(F)c(Cl)c1 (centres unmarked) [Compound 453] | < 1000 nM | < 1000 nM | 10 to 100 µM | < 1000 nM |  |
| COc1cc(C(=O)NCC(O)(c2cc(C(C)(C)N)cc(-c3ccc(F)cc3)n2)C(F)(F)F)cnc1OCCO (centres unmarked) [Compound 643] | < 1000 nM | < 1000 nM | > 100 µM | < 1000 nM |  |
| COc1cc(C(=O)OCC(O)(CN)c2ccc(OC)c(-c3ccc(F)c(Cl)c3)n2)ccc1OC1CC1 (centres unmarked) [Compound 383] | < 1000 nM | < 1000 nM | 10 to 100 µM | < 1000 nM |  |
| CCNC(C)(C)c1cc(-c2ccc(F)cc2)nc(C(O)(CNC(=O)c2ccc(OC3CC3)c(OC)c2)C(F)(F)F)c1 (centres unmarked) [Compound 388] | < 1000 nM | < 1000 nM | 10 to 100 µM | < 1000 nM |  |
| COc1cc(C(=O)NCC(O)(CN2CCC2)c2ccc(OC)c(-c3ccc(F)c(Cl)c3)n2)ccc1OC1CC1 (centres unmarked) [Compound 462] | < 1000 nM | < 1000 nM | 10 to 100 µM | < 1000 nM |  |
| COc1cc(C(=O)NCC(O)(c2cc3c(c(-c4ccc(F)c(Cl)c4)n2)OCC3C)C2CC2)ccc1OCCO (centres unmarked) [Compound 308] | < 1000 nM | < 1000 nM | 10 to 100 µM | < 1000 nM |  |
| COc1cc(C(=O)NCC(O)(CNC(C)=O)c2ccc(OC)c(-c3ccc(F)c(Cl)c3)n2)ccc1OCCO (centres unmarked) [Compound 195] | < 1000 nM | < 1000 nM | > 100 µM | < 1000 nM |  |
| CNC(C)(C)c1cc(-c2ccc(F)c(Cl)c2)nc(C(O)(CNC(=O)c2ccc(OC[C@@H](C)O)c(OC)c2)C(F)(F)F)c1 (some centres unmarked) [Compound 486] | < 1000 nM | < 1000 nM | 10 to 100 µM | < 1000 nM |  |
| COc1cc(C(=O)NCC(C)(O)c2ccc(OC)c(-c3c[nH]c4c(F)cccc34)n2)ccc1OCC(N)=O (centres unmarked) [Compound 419] | < 1000 nM | < 1000 nM | > 100 µM | < 1000 nM |  |
| CCc1ccc(C(C)(O)CNC(=O)c2ccc(OC)c(OC)c2)nc1-c1csc2c(F)cccc12 (centres unmarked) [Compound 115] | < 1000 nM | < 1000 nM | 10 to 100 µM | < 1000 nM |  |
| CCC1(N)COc2c1cc(C(O)(CNC(=O)c1ccc(OC3CC3)c(OC)c1)C(F)(F)F)nc2-c1ccc(F)cc1 (centres unmarked) [Compound 531] | < 1000 nM | < 1000 nM | 10 to 100 µM | < 1000 nM |  |
| COc1cc(C(=O)NC[C@@](O)(c2cc(C(C)(C)N)cc(-c3ccc(F)c(Cl)c3)n2)C(F)(F)F)ccc1OC[C@@H](C)O [Compound 551] | < 1000 nM | < 1000 nM | 10 to 100 µM | < 1000 nM |  |
| CCC(O)(CNC(=O)c1ccc(OCCF)c(OC)c1)c1ccc(OC)c(-c2ccc(F)c(Cl)c2)n1 (single isomer, unassigned) [Compound 122a] | < 1000 nM | < 1000 nM | 10 to 100 µM | < 1000 nM |  |
| CCC(O)(CNC(=O)c1ccc(OCCF)c(OC)c1)c1ccc(OC)c(-c2ccc(F)c(Cl)c2)n1 (racemic) [Compound 122] | < 1000 nM | < 1000 nM | 10 to 100 µM | < 1000 nM |  |
| COc1ccc(C(O)(CO)CNC(=O)c2ccc(OC3CCNC3=O)c(Cl)c2)nc1-c1ccc(F)c(Cl)c1 (centres unmarked) [Compound 452] | < 1000 nM | < 1000 nM | 10 to 100 µM | < 1000 nM |  |
| COc1cc(C(=O)NCC(O)(c2cc(CNC(C)=O)cc(-c3ccc(F)c(Cl)c3)n2)C(F)(F)F)ccc1OC1CC1 (centres unmarked) [Compound 328] | < 1000 nM | < 1000 nM | 10 to 100 µM | < 1000 nM |  |

| SMILES | IC50 (recombinant RSV complex) | EC50 [1, 3] | CC50 at 5 days [2] | EC50 (RSV replicon) | EC50 [1, 4] |
| --- | --- | --- | --- | --- | --- |
| COc1cc(C(=O)NCC(O)(Cn2cncn2)c2ccc(OC)c(-c3ccc(F)c(Cl)c3)n2)ccc1OCCO (centres unmarked) [Compound 194] | < 1000 nM | < 1000 nM | > 100 µM | < 1000 nM |  |
| COc1cc(C(=O)NCC(O)(c2cc(CN)cc(-c3ccc(F)c(Cl)c3)n2)C(F)(F)F)ccc1OC[C@@H](C)O (some centres unmarked) [Compound 357] | < 1000 nM | < 1000 nM | 10 to 100 µM | < 1000 nM |  |
| COc1cc(C(=O)NCC(O)(c2cc(C(C)(C)N)cc(-c3ccc(F)cc3)n2)C(F)(F)F)ccc1OC[C@@H](C)O (some centres unmarked) [Compound 586] | < 1000 nM | < 1000 nM | 10 to 100 µM | < 1000 nM |  |
| COc1cc(C(=O)NCC(O)(c2ccc(OC)c(-c3ccc(F)c(Cl)c3)n2)C(F)(F)F)ccc1OC1CC1(F)F (centres unmarked) [Compound 358] | < 1000 nM | < 1000 nM | > 100 µM | < 1000 nM |  |
| COc1cc(C(=O)NCC(O)(c2cc3c(c(-c4ccc(F)c(Cl)c4)n2)OCC3N)C(F)(F)F)ccc1OC1CC1 (centres unmarked) [Compound 525] | < 1000 nM | < 1000 nM | 10 to 100 µM | < 1000 nM |  |
| COc1cc(C(=O)NCC(C)(O)c2cc(C(C)(C)C)cc(-c3ccc(F)c(Cl)c3)n2)ccc1OCCO (centres unmarked) [Compound 467] | < 1000 nM | < 1000 nM | 10 to 100 µM | < 1000 nM |  |
| COc1cc(C(=O)NC[C@](O)(c2cc(C(C)(C)N)cc(-c3ccc(C#N)cc3)n2)C(F)(F)F)ccc1OC[C@@H](C)O [Compound 624b] | < 1000 nM | < 1000 nM | > 100 µM | < 1000 nM |  |
| COc1cc(C(=O)NCC(C)(O)c2cc(C(C)(C)N)cc(-c3ccc(F)c(Cl)c3)n2)ccc1OC1CC1 (centres unmarked) [Compound 460] | < 1000 nM |  | 10 to 100 µM | < 1000 nM | < 1000 nM |
| COc1cc(C(=O)NCC(O)(c2ccc(OC)c(-c3ccc(F)c(Br)c3)n2)C(F)(F)F)ccc1OCC(N)=O (centres unmarked) [Compound 443] | < 1000 nM | < 1000 nM | 10 to 100 µM | < 1000 nM |  |
| COc1cc(C(=O)NCC(O)(c2cc3c(c(-c4ccc(F)cc4)n2)OCC3(C)N)C(F)(F)F)cc2ccc(=O)[nH]c12 (centres unmarked) [Compound 642] | < 1000 nM | < 1000 nM | 10 to 100 µM | < 1000 nM |  |
| COc1cc(C(=O)NCC(O)(c2cc3c(c(-c4ccc(F)c(Cl)c4)n2)OCC3(C)C)C(F)(F)F)ccc1OC1CCNC1=O (centres unmarked) [Compound 200] | < 1000 nM |  | 10 to 100 µM | < 1000 nM | < 1000 nM |
| COc1cc(C(=O)NCC(O)(c2ccc(OC)c(-c3ccc(F)c(Cl)c3)n2)C(F)(F)F)ccc1OC1CC1 (centres unmarked) [Compound 370] | < 1000 nM |  | > 100 µM | < 1000 nM | < 1000 nM |
| COc1cc(C(=O)NCC(O)(CC2CNC2)c2ccc(OC)c(-c3ccc(F)c(Cl)c3)n2)ccc1OC1CC1 (centres unmarked) [Compound 461] | < 1000 nM | < 1000 nM | 10 to 100 µM | 1000 to 50000 nM |  |
| CCNC(=O)NC(C)(C)c1cc(-c2ccc(F)c(Cl)c2)nc(C(O)(CNC(=O)c2ccc(OC3CC3)c(OC)c2)C(F)(F)F)c1 (centres unmarked) [Compound 387] | < 1000 nM | < 1000 nM | > 100 µM | < 1000 nM |  |
| COc1cc(C(=O)NCC(F)(c2ccc(OC)c(-c3ccc(F)c(Cl)c3)n2)C2CC2)ccc1OCCO (centres unmarked) [Compound 366] | < 1000 nM | < 1000 nM | 10 to 100 µM | < 1000 nM |  |
| COc1cc(C(=O)NC[C@](O)(c2cc(C(C)(C)N)cc(-c3ccc(F)cc3)n2)C(F)(F)F)ccc1OCCO [Compound 554] | < 1000 nM | < 1000 nM | 10 to 100 µM | < 1000 nM |  |
| COc1cc(C(=O)NCC(O)(c2cc3c(c(-c4ccc(F)cc4)n2)OCC3(C)N)C(F)(F)F)ccc1OC[C@@H](C)O (some centres unmarked) [Compound 556] | < 1000 nM | < 1000 nM | 10 to 100 µM | < 1000 nM |  |
| COc1cc(C(=O)NCC(O)(c2cc(C(C)(C)NCC(=O)O)cc(-c3ccc(F)c(Cl)c3)n2)C(F)(F)F)ccc1OC1CC1 (centres unmarked) [Compound 515] | < 1000 nM | < 1000 nM | 10 to 100 µM | < 1000 nM |  |
| COc1cc(C(=O)NCC(O)(c2cc(C(C)(C)NC(C)=O)cc(-c3ccc(F)c(Cl)c3)n2)C(F)(F)F)ccc1OC1CC1 (centres unmarked) [Compound 326] | < 1000 nM | < 1000 nM | 10 to 100 µM | < 1000 nM |  |

From patent US11021444B2, “Antiviral compounds” (priority 2013, dated 2021)
